In this experiment the target is Serine/threonine-protein kinase PAK 6 (Homo sapiens) (UniProt Q9NQU5). The experiment in a line: PAK6 binders by thermal shift, biophysical, DSF, SYPRO orange, recombinant protein (AID 391). The settings on record: at 10 µM, protein 2 µM, buffer 10 mM HEPES, pH 7.5, NaCl 150 mM.
[1] abbreviates: run set 2, stronger effect = higher value.
Where [2] appears, read: run set 1, stronger effect = higher value.

Serine/threonine-protein kinase PAK 6 (Homo sapiens), sequence (Q9NQU5 whole entry, looked up): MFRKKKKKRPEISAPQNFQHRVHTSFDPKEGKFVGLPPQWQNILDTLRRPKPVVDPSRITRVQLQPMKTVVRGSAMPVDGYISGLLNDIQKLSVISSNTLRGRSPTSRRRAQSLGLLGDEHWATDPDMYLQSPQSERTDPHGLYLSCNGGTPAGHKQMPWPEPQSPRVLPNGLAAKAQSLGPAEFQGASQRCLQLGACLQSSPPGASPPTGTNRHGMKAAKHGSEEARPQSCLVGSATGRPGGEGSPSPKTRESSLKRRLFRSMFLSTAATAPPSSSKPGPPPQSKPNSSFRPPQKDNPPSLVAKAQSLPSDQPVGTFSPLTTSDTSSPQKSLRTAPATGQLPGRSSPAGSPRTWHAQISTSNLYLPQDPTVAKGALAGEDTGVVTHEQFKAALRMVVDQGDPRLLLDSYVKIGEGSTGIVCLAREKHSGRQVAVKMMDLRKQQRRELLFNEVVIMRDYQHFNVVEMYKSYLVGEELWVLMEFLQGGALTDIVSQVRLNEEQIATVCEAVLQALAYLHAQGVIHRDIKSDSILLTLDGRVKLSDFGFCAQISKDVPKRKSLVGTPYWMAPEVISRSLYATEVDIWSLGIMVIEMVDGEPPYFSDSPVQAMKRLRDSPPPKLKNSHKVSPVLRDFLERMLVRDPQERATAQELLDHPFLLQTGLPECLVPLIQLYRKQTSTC

`Clc1ccc(-c2cnc3ccc(NC4CCOCC4)nn23)cc1`: under setting [1], the Tm shift was 3.5 Celsius.
As to `O=C1NC(=O)c2c1c1c3ccccc3n3c1c1c2c2ccccc2n1[C@@H]1CCC3O1`, under setting [2], the Tm shift was 6.44 Celsius.
On to `NC(=O)Nc1sc(-c2ccccc2)cc1C(N)=O`, for which the Tm shift under setting [2] was 3.43 Celsius.
With `CC(O)(O)C1(O)C[C@@H]2O[C@@]1(C)n1c3ccccc3c3c4c(c5c6ccccc6n2c5c31)C(=O)NC4` (some centres undefined), the Tm shift under setting [1] was 7.7 Celsius.
Consider `NCCNc1ncc(C(N)=O)c(Nc2cccc(C(F)(F)F)c2)n1`, for which the Tm shift under setting [1] was 5.21 Celsius.
With `O=C1Cc2c([nH]c3ccc(Br)cc23)-c2ccccc2N1`, under setting [1], the Tm shift was 3.2 Celsius.
Turning to `NCCCn1cc(C2=C(c3c[nH]c4ccccc34)C(=O)NC2=O)c2ccccc21`, the Tm shift under setting [2] is 4.48 Celsius.
Regarding `CCN(CC)CCNC(=O)c1c(C)[nH]c(/C=C2\C(=O)Nc3ccc(Cl)cc32)c1C`, the Tm shift under setting [1] was 3.8 Celsius.
With `CCn1cnc2c(Nc3cccc(Cl)c3)nc(N[C@@H]3CCCC[C@@H]3N)nc21`, the Tm shift under setting [1] is 7 Celsius.
For `OCC(O)CCO/N=C1/C(c2c(O)[nH]c3ccccc23)=Nc2ccccc21` (centres undefined), the Tm shift under setting [1] is 3.3 Celsius.
For `CC(C)n1cnc2c(Nc3cccc(Cl)c3)nc(NCCO)nc21`, the Tm shift by setting is: under setting [2], 4.44 Celsius; under setting [1], 3.2 Celsius.
For the molecule `O=Nc1c(-c2c(O)[nH]c3cc(Br)ccc23)[nH]c2ccccc12`, the Tm shift under setting [1] was 3.4 Celsius.
For `Cc1cc(Nc2nc(-c3ccccc3)nc3ccccc23)n[nH]1`, the Tm shift under setting [1] was 5.45 Celsius.
Same read-out and setting: the figure for `O=Nc1c(-c2c(O)[nH]c3ccccc23)[nH]c2ccccc12` is 8.7 Celsius.
For `N=C(N)SCCCn1cc(C2=C(c3c[nH]c4ccccc34)C(=O)NC2=O)c2ccccc21`, the Tm shift under setting [2] was 3.13 Celsius.
`O=Nc1c(-c2c(O)[nH]c3ccc(S(O)(O)O)cc23)[nH]c2ccccc12`: the Tm shift under setting [2] was 3.24 Celsius.
As for `CC(C)C(CO)Nc1nc(Nc2cccc(Cl)c2)c2ncn(C(C)C)c2n1` (centres undefined), under setting [2], the Tm shift was 5.88 Celsius.
Same read-out and setting: the figure for `O=C1Cc2c([nH]c3ccc(N(O)O)cc23)-c2ccccc2N1` is 3.92 Celsius.
Turning to `NC(=O)c1ccc(-c2nc(-c3ccc4c(c3)OCCO4)c(-c3ccccn3)[nH]2)cc1`, under setting [1], the Tm shift is 4.8 Celsius.
Take `Cn1cc(/C=C2\C(=O)Nc3ccc(S(N)(=O)=O)cc32)c2ccccc21`: the Tm shift under setting [1] was 4.26 Celsius.
With `N#Cc1ccc(-c2cnc3ccc(NC4CCOCC4)nn23)cc1`, the Tm shift under setting [1] was 3.3 Celsius.
Turning to `Nc1nc(Nc2ccc(S(N)(=O)=O)cc2)nn1C(=S)Nc1c(F)cccc1F`, the Tm shift under setting [1] is 5.64 Celsius.
Regarding `O=C1NCc2c1c1c3ccccc3[nH]c1c1[nH]c3ccccc3c21`, the Tm shift under setting [1] is 3.1 Celsius.

The values are drawn from PubChem BioAssay AID391 (SGCOxCompounds, 2006).
